Patent publication US20070292888A1, “Methods for Measuring Enzyme Activities in Cells, Blood, Tumors and Tissues” (GEN-PATH PHARMACEUTICALS, INC., priority 2004, published 2007)

Biological target: T1, alpha-ketoglutarate dehydrogenase (kGDH) (Mus musculus, UniProt Q60597)
T1 construct: from tissue; host or cells: mouse brain, blood, tumor and other organs (crude lysates)
T1 sequence (Q60597 41-1023): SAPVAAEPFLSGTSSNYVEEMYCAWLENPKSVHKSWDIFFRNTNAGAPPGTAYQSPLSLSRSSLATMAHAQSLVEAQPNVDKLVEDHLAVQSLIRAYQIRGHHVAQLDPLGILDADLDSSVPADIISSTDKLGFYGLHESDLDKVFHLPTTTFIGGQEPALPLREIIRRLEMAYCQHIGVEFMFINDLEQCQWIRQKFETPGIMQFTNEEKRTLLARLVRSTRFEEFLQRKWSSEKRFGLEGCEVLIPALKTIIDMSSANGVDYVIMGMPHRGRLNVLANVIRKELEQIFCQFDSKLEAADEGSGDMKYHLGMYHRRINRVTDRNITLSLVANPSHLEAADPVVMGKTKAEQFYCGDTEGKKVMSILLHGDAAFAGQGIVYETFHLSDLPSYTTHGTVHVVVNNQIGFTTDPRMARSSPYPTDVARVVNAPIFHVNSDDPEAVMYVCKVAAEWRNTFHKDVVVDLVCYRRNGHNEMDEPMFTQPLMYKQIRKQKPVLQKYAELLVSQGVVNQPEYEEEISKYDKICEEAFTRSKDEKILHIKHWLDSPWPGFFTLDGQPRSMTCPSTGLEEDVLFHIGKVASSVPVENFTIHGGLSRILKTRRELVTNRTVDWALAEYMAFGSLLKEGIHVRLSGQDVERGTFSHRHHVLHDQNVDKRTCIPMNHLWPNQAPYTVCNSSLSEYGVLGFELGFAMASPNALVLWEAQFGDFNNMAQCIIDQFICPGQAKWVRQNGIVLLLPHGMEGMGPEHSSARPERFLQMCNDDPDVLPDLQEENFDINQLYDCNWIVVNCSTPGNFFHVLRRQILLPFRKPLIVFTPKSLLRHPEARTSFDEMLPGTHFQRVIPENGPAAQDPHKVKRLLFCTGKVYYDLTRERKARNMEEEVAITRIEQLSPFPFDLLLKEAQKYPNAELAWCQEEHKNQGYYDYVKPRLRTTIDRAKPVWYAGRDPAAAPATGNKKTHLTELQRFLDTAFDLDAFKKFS
T1 sequence (Q9D2G2 69-454 partner): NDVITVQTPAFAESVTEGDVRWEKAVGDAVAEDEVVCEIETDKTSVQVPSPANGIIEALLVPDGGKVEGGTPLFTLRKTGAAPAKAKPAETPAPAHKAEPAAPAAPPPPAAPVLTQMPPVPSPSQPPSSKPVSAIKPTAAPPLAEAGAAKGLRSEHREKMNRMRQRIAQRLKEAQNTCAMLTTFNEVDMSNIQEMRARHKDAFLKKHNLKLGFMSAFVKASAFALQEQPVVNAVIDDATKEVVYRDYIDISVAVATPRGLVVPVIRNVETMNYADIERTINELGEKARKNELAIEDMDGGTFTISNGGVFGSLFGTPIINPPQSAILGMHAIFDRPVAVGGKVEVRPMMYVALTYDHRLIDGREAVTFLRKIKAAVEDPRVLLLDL
T1 sequence (O08749 36-509 partner): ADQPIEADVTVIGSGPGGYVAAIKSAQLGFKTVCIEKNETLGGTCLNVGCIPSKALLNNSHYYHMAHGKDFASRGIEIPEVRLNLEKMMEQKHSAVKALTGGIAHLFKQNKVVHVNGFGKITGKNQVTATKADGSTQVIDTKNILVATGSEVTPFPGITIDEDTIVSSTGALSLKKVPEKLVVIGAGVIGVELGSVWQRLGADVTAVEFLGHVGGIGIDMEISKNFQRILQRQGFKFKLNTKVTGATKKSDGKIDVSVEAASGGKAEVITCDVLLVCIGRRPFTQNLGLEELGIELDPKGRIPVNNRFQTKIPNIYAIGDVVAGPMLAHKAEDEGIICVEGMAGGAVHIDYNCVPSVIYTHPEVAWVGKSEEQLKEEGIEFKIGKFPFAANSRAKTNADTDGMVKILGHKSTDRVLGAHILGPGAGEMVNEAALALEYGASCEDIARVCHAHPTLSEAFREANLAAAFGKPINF
Experiment: alpha-ketoglutarate dehydrogenase activity in tissues of treated mice (fluorescence NADH assay)
Type: in vivo
Description: Blood samples from mice were taken (40 μl whole blood) serially or from mice sacrificed at the end of the experiment. Tissues, such as tumors (e.g. from implantation, xenograft, or arising spontaneously), brain, heart, kidney, liver, lung and spleen were taken and flash frozen in liquid nitrogen or on dry ice and stored in −80° C. until time of assay. Four volumes of cold lysis buffer (20 mM HEPES, pH 7.5, 1 mM EDTA, 0.2 g/l Triton X-100® and 0.2 g/L sodium deoxycholate, supplemented with 1 mM DTT and 1 mM PMSF just before use) were added to the blood, which was dissolved by vortexing. For blood that was frozen before coagulation, a clear lysate was obtained. If coagulation occurred, homogenization was used as described below for tissue. Tissues were suspended in lysis buffer in 10 ml round bottom tubes and homogenized with PowerGen 125® (Fisher Scientific) for four seconds at highest power while submerged in an ice-water bath. This step was repeated after a few seconds, as necessary. […]
Each reaction was monitored for the appearance of NADH (for transketolase, alpha-ketoglutarate dehydrogenase, pyruvate dehydrogenase) or NADPH (for glucose-6-phosphate dehydrogenase) at room temperature in a fluorescent plate reader with excitation at 340 nm and emission at 470 nm in kinetic mode. The velocity was determined by the slope of the initial linear range of increasing fluorescence, expressed in fluorescent units (FU)/min. The protein concentration in the lysate was determined using Bradford assays (BioRad) with BSA as a standard. […]
To investigate the amount of in vivo enzyme inhibition following treatment with an inhibitor, we administered a single dose of N3PT (100 mg/kg, intraperitoneally [i.p.]) and blood, spleen and brain samples were collected at various times from 0-120 hours after dosing. The enzymatic activities were determined as described in Example 1. TK activity was measured in blood and spleen. Because TK activity in the brain is below the detection limit of the assay, kGDH activity was measured in brain samples. […]

kGDH activity in blood (11 days i.p. twice per day, blood): obliterated
inhibition of brain kGDH activity (single dose 100 mg/kg i.p., 0-120 hours): No significant inhibition
Compound: Cc1ccc(C[n+]2csc(CCO)c2C)c(N)n1 [N3PT, 3-[(2-amino-6-methyl-3-pyridinyl)methyl]-5-(2-hydroxyethyl)-4-methyl thiazolium]
brain penetration (after a single dose 100 mg/kg i.p., inferred from brain kGDH activity): little or no significant brain penetration
